Data: ChEMBL document CHEMBL1201862, “PubChem BioAssay data set” (2004)
The source made the active and inactive calls.

How the values were obtained:
[1] = target: Large T antigen (Simian virus 40, UniProt P03070); type: functional, Betapolyomavirus macacae;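 also: Confirmatory-stage PubChem screen for compounds that inhibit SV40 T antigen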
[2] = target: Caspase-7 (Homo sapiens, UniProt P55210); test: human caspase-7 inhibitors, dose response, selectivity assay for caspase-6 inhibitor project, biochemical, DEVD-R110 fluorescence, cherry-pick (AID 743295)
Sequence of Caspase-7 (P55210 24-198 limits assumed): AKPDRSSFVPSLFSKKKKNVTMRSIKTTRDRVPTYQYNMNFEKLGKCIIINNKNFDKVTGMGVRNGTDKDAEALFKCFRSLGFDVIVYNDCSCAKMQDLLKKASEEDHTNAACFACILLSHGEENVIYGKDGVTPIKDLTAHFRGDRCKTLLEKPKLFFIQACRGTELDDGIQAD
Sequence of Caspase-7 (P55210 207-303 limits assumed): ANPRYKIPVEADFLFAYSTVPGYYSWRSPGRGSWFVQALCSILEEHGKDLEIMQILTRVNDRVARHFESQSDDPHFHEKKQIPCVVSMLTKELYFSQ

[3] = target: T1, Intestinal-type alkaline phosphatase (Homo sapiens, UniProt P09923); test: activation of human intestinal alkaline phosphatase – biochemical, dose response (AID 488873); type: functional
T1 sequence (P09923 whole entry): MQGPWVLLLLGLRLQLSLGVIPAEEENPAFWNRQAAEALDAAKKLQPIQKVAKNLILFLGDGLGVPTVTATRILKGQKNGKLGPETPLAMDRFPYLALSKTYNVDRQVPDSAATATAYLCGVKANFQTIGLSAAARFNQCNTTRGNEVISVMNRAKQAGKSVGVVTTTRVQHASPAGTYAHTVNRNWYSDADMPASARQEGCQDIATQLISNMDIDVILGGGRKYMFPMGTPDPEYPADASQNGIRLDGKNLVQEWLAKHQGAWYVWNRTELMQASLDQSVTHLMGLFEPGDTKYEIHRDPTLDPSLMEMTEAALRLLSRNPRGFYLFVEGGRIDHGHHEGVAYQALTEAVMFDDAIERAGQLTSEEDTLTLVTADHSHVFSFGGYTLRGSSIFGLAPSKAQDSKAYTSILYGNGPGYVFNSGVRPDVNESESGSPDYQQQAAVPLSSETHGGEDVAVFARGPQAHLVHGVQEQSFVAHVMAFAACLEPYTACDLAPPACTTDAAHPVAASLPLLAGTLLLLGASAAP

[4] = target: Ras and Rab interactor 1/Tyrosine-protein kinase ABL1 (Homo sapiens, UniProt P00519+Q13671); type: functional;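 also: biochemical TR-FRET dose-response test measuring inhibition of binding between Rin1 and Abl proteins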
[5] = target: Intestinal-type alkaline phosphatase (Mus musculus, UniProt P24822); test: PubChem AID 488785; type: functional
Sequence of Intestinal-type alkaline phosphatase (Mus musculus, UniProt P24822) (P24822 whole entry): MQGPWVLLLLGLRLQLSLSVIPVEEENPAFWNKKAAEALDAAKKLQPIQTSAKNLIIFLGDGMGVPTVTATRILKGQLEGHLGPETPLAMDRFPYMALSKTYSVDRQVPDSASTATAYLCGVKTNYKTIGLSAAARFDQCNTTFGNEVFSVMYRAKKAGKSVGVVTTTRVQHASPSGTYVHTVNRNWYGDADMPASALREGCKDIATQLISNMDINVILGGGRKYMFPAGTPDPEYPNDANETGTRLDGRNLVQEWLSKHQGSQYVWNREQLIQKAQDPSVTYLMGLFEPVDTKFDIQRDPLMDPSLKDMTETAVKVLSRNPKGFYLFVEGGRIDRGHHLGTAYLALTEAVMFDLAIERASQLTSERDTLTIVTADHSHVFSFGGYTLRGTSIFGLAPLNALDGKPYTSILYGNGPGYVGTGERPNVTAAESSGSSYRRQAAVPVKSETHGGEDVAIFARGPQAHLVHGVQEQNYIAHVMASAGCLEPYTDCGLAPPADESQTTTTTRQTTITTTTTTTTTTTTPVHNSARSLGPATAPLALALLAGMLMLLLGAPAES

[6] = target: T2, Caspase-6 (Homo sapiens, UniProt P55212); test: human caspase-6 inhibitors, dose response, biochemical, VEID-R110 fluorescence, cherry-pick (AID 720632)
T2 sequence (P55212 whole entry): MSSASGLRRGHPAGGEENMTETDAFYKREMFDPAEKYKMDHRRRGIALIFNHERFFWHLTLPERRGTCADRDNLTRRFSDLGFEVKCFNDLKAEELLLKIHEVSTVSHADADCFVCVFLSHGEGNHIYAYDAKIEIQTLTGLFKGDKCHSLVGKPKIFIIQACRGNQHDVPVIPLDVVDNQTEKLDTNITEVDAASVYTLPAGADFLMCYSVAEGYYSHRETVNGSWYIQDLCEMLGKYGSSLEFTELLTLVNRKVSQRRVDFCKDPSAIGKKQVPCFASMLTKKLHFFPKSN

[7] = target: T3, Caspase-3 (Homo sapiens, UniProt P42574); test: caspase-3 enzyme inhibitors, selectivity check, dose response, selectivity assay for caspase-6 allosteric inhibitor project, biochemical, fluorescence, cherry-picked samples (AID 743291)
T3 sequence (P42574 whole entry): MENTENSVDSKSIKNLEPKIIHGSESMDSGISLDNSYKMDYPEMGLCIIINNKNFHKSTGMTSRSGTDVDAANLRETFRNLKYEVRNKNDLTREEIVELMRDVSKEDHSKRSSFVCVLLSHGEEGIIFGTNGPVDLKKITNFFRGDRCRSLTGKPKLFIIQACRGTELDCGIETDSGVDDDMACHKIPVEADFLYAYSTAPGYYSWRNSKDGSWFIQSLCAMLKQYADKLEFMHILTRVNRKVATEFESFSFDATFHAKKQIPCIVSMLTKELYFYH

[8] = target: Induced myeloid leukemia cell differentiation protein Mcl-1 (Homo sapiens, UniProt Q07820); type: functional
Sequence of Induced myeloid leukemia cell differentiation protein Mcl-1 (Q07820 whole entry): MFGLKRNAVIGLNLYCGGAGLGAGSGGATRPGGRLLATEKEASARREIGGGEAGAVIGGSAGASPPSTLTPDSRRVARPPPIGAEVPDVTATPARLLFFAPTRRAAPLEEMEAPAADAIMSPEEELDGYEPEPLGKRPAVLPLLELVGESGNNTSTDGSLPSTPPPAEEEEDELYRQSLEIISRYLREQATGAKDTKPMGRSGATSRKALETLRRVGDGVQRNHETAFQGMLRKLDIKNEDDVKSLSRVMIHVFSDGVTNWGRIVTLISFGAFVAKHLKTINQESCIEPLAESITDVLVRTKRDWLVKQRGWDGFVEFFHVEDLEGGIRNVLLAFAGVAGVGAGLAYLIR

[9] = target: T4, Alkaline phosphatase, tissue-nonspecific isozyme (Homo sapiens, UniProt P05186); test: TNAP enzyme inhibition by screening hits, dose response, selectivity assay for mouse IAP inhibitor project, biochemical, human TNAP, uHTS hits (AID 488906); type: functional
T4 sequence (P05186 whole entry): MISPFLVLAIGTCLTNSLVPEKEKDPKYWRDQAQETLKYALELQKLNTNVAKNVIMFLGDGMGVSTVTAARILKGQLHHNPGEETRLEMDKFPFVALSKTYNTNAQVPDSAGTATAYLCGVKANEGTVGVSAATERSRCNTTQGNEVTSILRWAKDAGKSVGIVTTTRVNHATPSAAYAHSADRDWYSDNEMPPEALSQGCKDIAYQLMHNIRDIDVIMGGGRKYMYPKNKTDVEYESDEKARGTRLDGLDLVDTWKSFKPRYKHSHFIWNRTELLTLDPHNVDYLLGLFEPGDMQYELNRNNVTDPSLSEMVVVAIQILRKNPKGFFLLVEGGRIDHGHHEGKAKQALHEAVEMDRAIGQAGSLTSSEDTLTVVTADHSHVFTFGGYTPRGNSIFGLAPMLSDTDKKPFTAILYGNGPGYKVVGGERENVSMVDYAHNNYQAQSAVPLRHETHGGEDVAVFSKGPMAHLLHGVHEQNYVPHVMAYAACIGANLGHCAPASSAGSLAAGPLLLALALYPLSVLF

[10] = target: NAD-dependent protein deacylase sirtuin-5, mitochondrial (Homo sapiens, UniProt Q9NXA8); test: SIRT5 desuccinylase inhibitors, dose response, biochemical, fluorescence imaging, cherry-pick, set 5 (AID 720591);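 also: desuccinylation of succinyl peptide AMC substrate read as fluorescence after trypsin release; potency of inhibitors that lower fluorescence and may act on trypsin instead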
Sequence of NAD-dependent protein deacylase sirtuin-5, mitochondrial (Q9NXA8 whole entry): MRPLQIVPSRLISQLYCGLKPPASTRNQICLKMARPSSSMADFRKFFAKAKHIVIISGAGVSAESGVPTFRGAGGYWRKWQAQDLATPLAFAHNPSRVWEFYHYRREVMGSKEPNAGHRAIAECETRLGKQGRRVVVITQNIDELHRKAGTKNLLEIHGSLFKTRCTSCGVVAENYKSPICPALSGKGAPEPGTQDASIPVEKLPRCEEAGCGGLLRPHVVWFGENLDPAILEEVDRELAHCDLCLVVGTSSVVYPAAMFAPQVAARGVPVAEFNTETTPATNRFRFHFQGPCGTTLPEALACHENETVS

[11] = target: COUP transcription factor 2 (Homo sapiens, UniProt P24468); test: Luminescence-based cell-based high throughput dose response assay to identify inhibitors of COUP-TFII (NR2F2).; type: functional;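 also: HEK293 cells transiently cotransfected with COUP-TFII expression vector and reporter; luciferase reporter luminescence driven by COUP-TFII from the pX2-168 reporter plasmid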
Sequence of COUP transcription factor 2 (P24468 whole entry): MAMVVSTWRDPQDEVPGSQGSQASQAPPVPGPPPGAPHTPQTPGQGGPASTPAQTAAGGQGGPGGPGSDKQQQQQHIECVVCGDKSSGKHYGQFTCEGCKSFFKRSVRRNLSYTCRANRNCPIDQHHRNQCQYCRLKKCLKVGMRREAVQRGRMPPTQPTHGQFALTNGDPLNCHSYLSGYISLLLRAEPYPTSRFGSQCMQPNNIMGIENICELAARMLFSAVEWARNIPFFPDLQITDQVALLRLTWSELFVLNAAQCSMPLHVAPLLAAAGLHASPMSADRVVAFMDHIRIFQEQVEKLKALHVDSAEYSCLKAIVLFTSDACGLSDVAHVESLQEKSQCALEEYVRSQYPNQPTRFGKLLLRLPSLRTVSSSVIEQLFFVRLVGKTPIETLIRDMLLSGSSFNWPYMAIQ

[12] = target: T5, DNA repair protein RAD52 homolog (Homo sapiens, UniProt P43351); type: functional, biochemical
T5 sequence (P43351 whole entry): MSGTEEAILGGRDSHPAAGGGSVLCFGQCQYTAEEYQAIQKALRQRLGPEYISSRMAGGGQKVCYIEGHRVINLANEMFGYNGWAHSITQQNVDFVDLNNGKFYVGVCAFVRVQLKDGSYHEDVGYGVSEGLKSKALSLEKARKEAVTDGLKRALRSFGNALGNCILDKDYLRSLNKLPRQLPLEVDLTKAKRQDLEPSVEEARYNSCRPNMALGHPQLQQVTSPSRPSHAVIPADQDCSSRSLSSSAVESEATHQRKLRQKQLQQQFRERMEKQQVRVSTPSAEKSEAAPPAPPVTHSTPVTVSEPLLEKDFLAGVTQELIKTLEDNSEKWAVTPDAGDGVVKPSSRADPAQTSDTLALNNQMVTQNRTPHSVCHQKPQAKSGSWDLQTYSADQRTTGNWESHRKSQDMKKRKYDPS

[13] = target: Disintegrin and metalloproteinase domain-containing protein 17 (Homo sapiens, UniProt P78536); test: ADAM17 protease inhibitors, dose response, counter-screen for ADAM10 exosite inhibitor project, biochemical, quenched FRET substrate (AID 743253)
Sequence of Disintegrin and metalloproteinase domain-containing protein 17 (P78536 whole entry, the tested form may be a part): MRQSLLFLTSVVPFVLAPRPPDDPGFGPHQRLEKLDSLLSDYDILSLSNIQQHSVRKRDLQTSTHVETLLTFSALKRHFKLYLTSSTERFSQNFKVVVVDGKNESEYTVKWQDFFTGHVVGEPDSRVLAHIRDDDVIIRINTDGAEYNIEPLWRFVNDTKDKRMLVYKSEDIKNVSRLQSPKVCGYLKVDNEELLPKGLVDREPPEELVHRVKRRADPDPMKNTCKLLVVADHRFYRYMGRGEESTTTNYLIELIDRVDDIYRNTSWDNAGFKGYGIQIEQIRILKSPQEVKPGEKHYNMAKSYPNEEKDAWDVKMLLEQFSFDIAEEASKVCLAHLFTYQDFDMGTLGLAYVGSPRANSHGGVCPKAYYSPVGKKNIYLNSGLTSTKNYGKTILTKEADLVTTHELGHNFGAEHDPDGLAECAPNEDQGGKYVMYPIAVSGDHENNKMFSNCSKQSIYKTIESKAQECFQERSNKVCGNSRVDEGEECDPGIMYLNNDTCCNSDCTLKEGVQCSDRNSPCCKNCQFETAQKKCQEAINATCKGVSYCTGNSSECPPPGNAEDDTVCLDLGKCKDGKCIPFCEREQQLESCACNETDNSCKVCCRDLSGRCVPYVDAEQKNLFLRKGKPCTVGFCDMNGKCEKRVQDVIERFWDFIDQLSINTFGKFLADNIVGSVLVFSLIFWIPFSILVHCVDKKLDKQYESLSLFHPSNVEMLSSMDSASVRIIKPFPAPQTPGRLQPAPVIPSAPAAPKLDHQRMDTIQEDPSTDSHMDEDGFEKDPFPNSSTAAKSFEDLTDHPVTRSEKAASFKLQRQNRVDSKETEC

[14] = target: Eukaryotic translation initiation factor 4E (Mus musculus, UniProt P63073); test: eIF4E–eIF4G protein interaction inhibitors, dose response, biochemical, TR-FRET (AID 855); type: functional;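 also: potency for disrupting eIF4E binding to eIF4GI seen as loss of FRET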
Sequence of Eukaryotic translation initiation factor 4E (P63073 whole entry): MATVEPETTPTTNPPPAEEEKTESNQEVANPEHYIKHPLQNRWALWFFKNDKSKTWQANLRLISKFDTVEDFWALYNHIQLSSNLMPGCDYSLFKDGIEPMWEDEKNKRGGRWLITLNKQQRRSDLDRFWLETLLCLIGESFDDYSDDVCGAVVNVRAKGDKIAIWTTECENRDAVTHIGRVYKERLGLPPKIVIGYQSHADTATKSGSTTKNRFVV

[15] = ADAM10 inhibitors, peptide cleavage, dose response, biochemical, QFRET (AID 743254);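 also: ADAM10 enzyme with the DM2 quenched FRET peptide as substrate; EDANS fluorescence gain as the protease cuts the substrate; inhibitor potency against ADAM10 proteolytic activity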
[16] = HepG2 cell cytotoxicity, dose response, cytotoxicity control, ATP luminescence, cherry-pick, set 6 (AID 1053125); type: functional, cell-based
[17] = target: T6, Histone-lysine N-methyltransferase NSD2 (Homo sapiens, UniProt O96028); type: biochemical
T6 sequence (O96028 whole entry): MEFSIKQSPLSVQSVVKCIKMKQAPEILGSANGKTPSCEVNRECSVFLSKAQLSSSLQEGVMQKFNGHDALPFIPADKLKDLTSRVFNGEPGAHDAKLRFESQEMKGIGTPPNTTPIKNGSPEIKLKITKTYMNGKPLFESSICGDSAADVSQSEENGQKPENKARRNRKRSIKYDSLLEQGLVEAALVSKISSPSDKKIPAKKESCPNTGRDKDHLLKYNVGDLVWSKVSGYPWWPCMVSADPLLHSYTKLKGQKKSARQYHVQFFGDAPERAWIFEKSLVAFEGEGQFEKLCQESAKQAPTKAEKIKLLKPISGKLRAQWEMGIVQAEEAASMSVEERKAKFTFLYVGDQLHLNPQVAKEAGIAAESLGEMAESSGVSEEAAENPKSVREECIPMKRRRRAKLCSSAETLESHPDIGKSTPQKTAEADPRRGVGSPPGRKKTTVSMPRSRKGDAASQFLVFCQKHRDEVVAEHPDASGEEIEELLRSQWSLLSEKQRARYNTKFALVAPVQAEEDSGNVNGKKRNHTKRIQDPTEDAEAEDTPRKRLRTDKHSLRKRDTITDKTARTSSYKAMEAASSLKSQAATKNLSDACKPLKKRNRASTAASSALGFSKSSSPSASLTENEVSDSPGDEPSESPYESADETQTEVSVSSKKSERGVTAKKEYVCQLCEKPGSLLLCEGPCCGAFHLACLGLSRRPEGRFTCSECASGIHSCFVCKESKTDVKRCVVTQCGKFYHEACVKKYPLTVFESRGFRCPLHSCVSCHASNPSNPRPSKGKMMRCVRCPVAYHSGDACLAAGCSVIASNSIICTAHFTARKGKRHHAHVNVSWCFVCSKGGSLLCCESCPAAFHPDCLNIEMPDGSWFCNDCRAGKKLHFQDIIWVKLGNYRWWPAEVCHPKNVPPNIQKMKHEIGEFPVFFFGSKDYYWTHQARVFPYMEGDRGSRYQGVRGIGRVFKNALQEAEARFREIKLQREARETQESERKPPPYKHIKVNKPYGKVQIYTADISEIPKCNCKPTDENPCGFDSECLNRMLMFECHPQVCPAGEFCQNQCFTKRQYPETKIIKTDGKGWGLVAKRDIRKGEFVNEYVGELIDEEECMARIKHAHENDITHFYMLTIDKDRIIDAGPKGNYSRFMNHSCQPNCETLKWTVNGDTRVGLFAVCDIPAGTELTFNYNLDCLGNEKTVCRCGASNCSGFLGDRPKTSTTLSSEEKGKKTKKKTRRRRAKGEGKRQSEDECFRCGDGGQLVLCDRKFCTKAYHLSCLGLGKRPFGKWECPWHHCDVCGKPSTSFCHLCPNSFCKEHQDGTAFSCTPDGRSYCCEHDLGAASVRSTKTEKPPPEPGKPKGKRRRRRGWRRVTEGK

[18] = target: T7, Small ubiquitin-related modifier 2 (Homo sapiens, UniProt P61956); test: SUMO2–SIM peptide binding inhibitors, dose response, selectivity assay for SUMO1 interaction inhibitor project, biochemical, fluorescence polarization, uHTS hits (AID 624385); type: functional; details: read-out: IC50_Mean
T7 sequence (P61956 whole entry): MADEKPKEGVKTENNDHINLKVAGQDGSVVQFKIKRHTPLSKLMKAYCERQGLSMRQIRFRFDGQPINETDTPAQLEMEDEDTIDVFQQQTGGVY

[19] = target: T1, Intestinal-type alkaline phosphatase; test: inhibition of human intestinal alkaline phosphatase – biochemical, dose response (AID 488876); type: functional
[20] = target: T8, Rac GTPase-activating protein 1 (Homo sapiens, UniProt Q9H0H5); test: MgcRacGAP GTPase-activating activity inhibitors, confirmation, biochemical, ADP Hunter fluorescence, primary and confirmatory (AID 624330); type: functional
T8 sequence (Q9H0H5 whole entry): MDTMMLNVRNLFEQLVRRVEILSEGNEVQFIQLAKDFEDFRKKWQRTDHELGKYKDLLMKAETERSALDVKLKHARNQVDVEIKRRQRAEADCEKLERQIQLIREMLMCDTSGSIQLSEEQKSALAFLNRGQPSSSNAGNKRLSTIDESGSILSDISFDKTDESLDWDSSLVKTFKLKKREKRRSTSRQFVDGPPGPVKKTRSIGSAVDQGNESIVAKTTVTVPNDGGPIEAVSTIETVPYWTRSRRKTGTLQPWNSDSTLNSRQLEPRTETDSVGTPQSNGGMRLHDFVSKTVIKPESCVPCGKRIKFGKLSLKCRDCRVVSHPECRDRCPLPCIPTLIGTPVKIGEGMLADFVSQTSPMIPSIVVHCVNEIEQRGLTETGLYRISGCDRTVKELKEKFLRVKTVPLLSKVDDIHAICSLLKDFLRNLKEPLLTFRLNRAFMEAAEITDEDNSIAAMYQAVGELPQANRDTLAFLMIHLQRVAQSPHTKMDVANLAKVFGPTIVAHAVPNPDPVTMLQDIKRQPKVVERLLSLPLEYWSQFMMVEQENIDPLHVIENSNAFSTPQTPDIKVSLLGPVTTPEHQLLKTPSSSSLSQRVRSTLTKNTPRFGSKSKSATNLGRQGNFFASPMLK

[21] = target: T9, Small ubiquitin-related modifier 1 (Homo sapiens, UniProt P63165); test: inhibitors of SUMO1 partner interactions, dose response, biochemical, FRET (AID 624383); type: functional; details: read-out: IC50_Mean
T9 sequence (P63165 whole entry): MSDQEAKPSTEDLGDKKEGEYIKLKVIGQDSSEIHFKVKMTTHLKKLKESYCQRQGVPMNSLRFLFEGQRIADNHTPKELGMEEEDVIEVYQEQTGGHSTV

[22] = target: T9, Small ubiquitin-related modifier 1; test: inhibitors of SUMO1 peptide binding, dose response, biochemical, fluorescence polarization, uHTS hits (AID 624382); type: functional; details: read-out: IC50_Mean
[23] = target: Caspase-8 (Homo sapiens, UniProt Q14790); test: caspase-8 inhibition counter-screen, dose response, selectivity assay for caspase-6 inhibitor project, biochemical, Z-IETD-R110 fluorescence, cherry-picked samples (AID 743294)
Sequence of Caspase-8 (Q14790 217-374 limits assumed): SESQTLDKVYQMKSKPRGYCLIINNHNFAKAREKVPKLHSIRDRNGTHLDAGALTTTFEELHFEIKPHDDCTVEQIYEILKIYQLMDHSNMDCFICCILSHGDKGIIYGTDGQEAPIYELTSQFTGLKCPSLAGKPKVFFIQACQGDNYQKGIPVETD
Sequence of Caspase-8 (Q14790 385-479 limits assumed): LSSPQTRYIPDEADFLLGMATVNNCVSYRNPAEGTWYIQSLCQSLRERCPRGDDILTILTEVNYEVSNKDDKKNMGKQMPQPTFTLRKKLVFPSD

[24] = target: T7, Small ubiquitin-related modifier 2; test: inhibitors of SUMO2 protein-protein interaction, dose response, selectivity assay for SUMO1 interaction inhibitor project, biochemical, FRET, human SUMO2, uHTS hits (AID 624384); type: functional; details: read-out: IC50_Mean
[25] = cells; details: HEK293

Sequence of Large T antigen (P03070 whole entry): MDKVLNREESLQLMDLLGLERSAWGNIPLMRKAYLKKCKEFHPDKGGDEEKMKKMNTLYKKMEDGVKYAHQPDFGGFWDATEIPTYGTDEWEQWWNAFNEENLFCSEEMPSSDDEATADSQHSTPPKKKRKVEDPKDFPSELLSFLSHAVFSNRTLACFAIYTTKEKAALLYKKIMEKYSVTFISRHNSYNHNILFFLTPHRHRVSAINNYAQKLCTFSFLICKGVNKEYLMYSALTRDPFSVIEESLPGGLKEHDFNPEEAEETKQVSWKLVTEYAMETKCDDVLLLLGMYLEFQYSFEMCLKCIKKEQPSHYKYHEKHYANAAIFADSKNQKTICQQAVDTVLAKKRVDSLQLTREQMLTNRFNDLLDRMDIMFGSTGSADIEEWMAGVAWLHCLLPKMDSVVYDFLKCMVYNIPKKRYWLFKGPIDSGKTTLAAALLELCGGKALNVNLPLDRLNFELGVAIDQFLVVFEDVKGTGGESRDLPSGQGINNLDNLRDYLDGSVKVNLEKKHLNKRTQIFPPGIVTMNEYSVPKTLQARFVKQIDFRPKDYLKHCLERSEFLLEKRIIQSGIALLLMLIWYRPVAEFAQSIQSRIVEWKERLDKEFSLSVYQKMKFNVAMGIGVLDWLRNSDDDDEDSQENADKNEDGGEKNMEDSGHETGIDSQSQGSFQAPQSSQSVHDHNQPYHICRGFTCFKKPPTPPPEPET

SMILES: O=C(CCO)c1ccc(O)cc1
- IC50 [1]: 28.8 µM (active)
- AC50 [2]: 9.65 µM (active)
- EC50 [3]: 11.3 µM (active)
- IC50 [4]: 11.9 µM (inactive)
- IC50 [5]: > 100 µM (inactive)
- AC50 [6]: 1.32 µM (active)
- AC50 [7]: 31.7 µM (active)
- IC50 [8]: 5.16 µM (active)
- IC50 [9]: > 100 µM (inactive)

SMILES: O=C(Cn1nc(-c2ccc(Cl)cc2)ccc1=O)NCC1COCCO1 (stereo not given)
- AC50 [10]: > 30 µM (inactive)

SMILES: NC(S)=NN=C1c2cc(OCCN3CCOCC3)ccc2-c2ccc(OCCN3CCOCC3)cc21
- IC50 [11]: 5.24 µM (active)
- AC50 [12]: 1.07 µM (active)

SMILES: Oc1cc2c(cc1C(c1ccc(Cl)c(Cl)c1)N1CCCC1)OCO2 (stereo not given)
- IC50 [13]: 20 µM (inactive)
- IC50 [14]: 50 µM (inactive)
- IC50 [15]: 4.72 µM (active)
- IC50 [8]: 4.76 µM (not active)

SMILES: CCOC(=O)c1cc2c(=O)n3ccccc3nc2n(C(C)C)/c1=N/C(=O)c1ccco1
- AC50 [16]: > 52 µM (inactive)

SMILES: O=C(COC(=O)c1ccccc1)Nc1ncc([N+](=O)[O-])s1
- AC50 [17]: 2.74 µM (active)
- AC50 [2]: 16.3 µM (active)
- IC50 [5]: < 0.195 µM (active)
- IC50 [18]: 14.7 µM (active)
- AC50 [6]: 0.951 µM (active)
- IC50 [19]: 80.6 µM (active)
- IC50 [20]: 50.2 µM (active)
- IC50 [21]: 51.7 µM (inactive)
- IC50 [22]: 9.39 µM (active)
- AC50 [23]: 61.3 µM (active)
- IC50 [24]: > 66 µM (inactive)
- IC50 [9]: 1.06 µM (active)

SMILES: C1CCNCC1.N#CC1=C(N)Oc2cc(O)ccc2C1c1ccc2c(c1)OCO2 (stereo not given)
- AC50 [25]: > 52 µM (inactive)
